Reference: patent US20240219394A1, “METHOD FOR MEASURING RESPONSE OF OLFACTORY RECEPTOR TO SUBSTANCE” (AJINOMOTO CO., INC., priority 2021, published 2024)

Test system: control cells (HEK293T cells transfected with the empty vector Rho-pME18S)
Experiment: Luciferase assay: response of control cells to adenosine
Type: cell-based, human
Details: FIG. 1
Method: HEK293T cells expressing each of the 352 kinds of olfactory receptors were prepared according to the following procedure. […] The gene mixture and transfection reagent mixture were mixed, dispensed into each well of a poly-D-lysine-coated 384-well plate in a volume of 12.5 μL, and allowed to stand for 15 minutes in a clean bench. The HEK293T cells inoculated in 10-cm petri dishes on the previous day (2.5×10^6 cells/10 cm petri dish) were prepared at a density of 1.2×10^5 cells/mL, inoculated into each well of the 384-well plate in a volume of 25 μL, and cultured overnight in an incubator maintained at 37° C. and 5% C02. […]
The 352 olfactory receptors expressed in HEK293T cells couple with Golf to activate adenylate cyclase, thereby increasing the amount of intracellular cAMP. In this example, responses of the olfactory receptors to the test substances were measured by using a luciferase reporter gene assay, in which increase in intracellular cAMP amount is monitored as an increase in firefly luciferase-derived luminescence. […] In addition, luminescence value derived from Renilla luciferase was used as an internal standard to correct errors due to differences of gene transfer efficiency and cell number among the wells. […]

Nc1ncnc2c1ncn2[C@@H]1O[C@H](CO)[C@@H](O)[C@H]1O [adenosine]
Response of control cells to adenosine (Luc/hRluc value, increase in cAMP): caused increase in cAMP
